In patent US20190225650A1, “PEPTIDOMIMETIC MACROCYCLES AND USE THEREOF IN REGULATING HIF1ALPHA” (AILERON THERAPEUTICS, INC., priority 2013, published 2019):
Bridge positions count the residues as written; N and C are the ends. Square brackets hold non-standard residues; d marks the D form. Peptide text beside a SMILES is read from it. R8 = C=CCCCCCC[C@@](C)(N)C(=O)O; S5 = C=CCCC[C@](C)(N)C(=O)O; Nle = CCCC[C@H](N)C(=O)O

Key:
[1] = biological target: T1, flag-tagged HIF1α (AA 786-826) / His6-tagged p300 (AA 323-423) complex (Homo sapiens, UniProt Q09472); test: HIF1α p300 displacement assay (TR FRET, +CHAPS); format: binding; conditions: read-out: IC50 (nM) (HIF1α_p300 Displacement + CHAPS)
T1 construct: His6-tagged p300 (AA 323-423); made in house; host or cells: E. coli (pETDuet vector)
Procedure, shortened: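 In this TR-FRET displacement format, peptides compete HIF1α C-terminal transactivation domain off p300-CH. They were preincubated 1 h at room temperature with 300 nM complex in HEPES pH 7.4/NaCl buffer with 7.5 mM CHAPS and 1 mM DTT. Anti-His-D2 (4 nM) and anti-Flag-K (0.5 μM) followed for 2 h, and a one-site fit of the fluorescence ratio gave IC50.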

HRE-bla ME-180 cells [2] = test: Cell proliferation assay (viability, MTT, 1% FBS); format: cell-based, human
Procedure, shortened: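 Viable cell number was measured with the CellTiter 96 (MTT) kit after compounds were applied for a 16 h normoxic (21% O2) pretreatment, followed by further normoxic or hypoxic (1% O2) culture. Cells: 2×10^4 ME-180 per well, Opti-MEM + 1% FBS, 0.5% DMSO vehicle.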

HRE-bla ME-180 cells [3] = test: Reporter gene assay (HRE-bla ME-180 HIF reporter, GeneBLAzer); format: cell-based, human; conditions: for EC50: 24 hour normoxia
Procedure, shortened: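 A FRET β-lactamase readout of HIF transcription was used. After compound treatment in 0.3% DMSO/media under normoxic conditions, 20 μl of 6× LiveBLAzer-FRET B/G (CCF4-AM) substrate was added. Plates sat 3 hr at room temperature in the dark and were read at 409 Ex/460Em and 409Ex/530Em on a Synergy 2. Inhibition was compared against DMSO vehicle controls, with chetomin as positive control.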

| Structure (SMILES) | IC50 [1] [nM] | EC50 (HRE-bla ME-180 cells [3]) [µM] | Viability 1% FBS AVG (MTT V3-24 hr Normoxia) (μM) (HRE-bla ME-180 cells [2]) | 18 h Avg % max inhibition at top conc (HIF Rptr-24 hrs normoxia) (μM) (HRE-bla ME-180 cells [3]) |
| --- | --- | --- | --- | --- |
| CCCC[C@@H]1NC(=O)[C@H](CC(C)C)NC(=O)[C@H](C(C)C)NC(=O)[C@@](C)(NC(=O)[C@H](CCC(=O)O)NC(=O)[C@H](CC(=O)O)NC(=O)[C@@H](NC(=O)[C@H](Cc2ccccc2)NC(C)=O)[C@@H](C)CC)CCCC=CCCC[C@@](C)(C(=O)N[C@@H](CC(C)C)C(=O)N[C@H](C(=O)N[C@H](C(=O)N[C@@H](CCC(=O)O)C(=O)N[C@@H](CCSC)C(=O)N[C@@H](C)C(=O)N[C@@H](CC(C)C)C(=O)N[C@@H](CC(=O)O)C(=O)N[C@@H](CCCNC(=N)N)C(=O)N[C@H](C(N)=O)[C@@H](C)CC)[C@@H](C)CC)C(C)C)NC1=O [SP-118] (Ac-FIDE[S5]VL[Nle][S5]LVIEMALDRI-NH2; staple 5-9) | ≤ 200 | 15 to 30 | ++++ (≥30: ++++) | +++ (≤25 but <50: +++) |
| CCCC[C@H](NC(=O)[C@H](Cc1ccccc1)NC(=O)[C@@H](NC(=O)[C@H](C)NC(=O)[C@H](CCC(N)=O)NC(=O)[C@H](CC(=O)O)NC(=O)[C@@H](NC(=O)[C@H](Cc1ccccc1)NC(C)=O)[C@@H](C)CC)C(C)C)C(=O)N[C@@]1(C)CCCC=CCCC[C@@](C)(C(=O)N[C@@H](Cc2c[nH]cn2)C(=O)N[C@@H](C)C(=O)N[C@@H](CC(C)C)C(=O)N[C@@H](CC(C)C)C(N)=O)NC(=O)[C@H]([C@@H](C)CC)NC(=O)[C@H](C(C)C)NC(=O)[C@H](CC(C)C)NC1=O [SP-258] (Ac-FIDQAVF[Nle][S5]LVI[S5]HALL-NH2; staple 9-13) | > 700 | 5 to 15 | ++ (≤5 but <15: ++) | +++ (≤25 but <50: +++) |
| CCCC[C@H](NC(=O)[C@H](CCC(=O)O)NC(=O)[C@@H](NC(=O)[C@@H](NC(=O)[C@H](CC(C)C)NC(=O)[C@]1(C)CCCC=CCCC[C@](C)(NC(=O)[C@H](CCCNC(=N)N)NC(=O)[C@H](CC(=O)O)NC(=O)[C@@H](NC(=O)[C@H](Cc2ccccc2)NC(C)=O)[C@@H](C)CC)C(=O)N[C@@H](C(C)C)C(=O)N[C@@H](CC(C)C)C(=O)N[C@@H](CCCC)C(=O)N1)C(C)C)[C@@H](C)CC)C(=O)N[C@@H](C)C(=O)N[C@@H](CC(C)C)C(N)=O [SP-156] (Ac-FIDR[S5]VL[Nle][S5]LVIE[Nle]AL-NH2; staple 5-9) | 200 to 400 | > 30 | ++++ (≥30: ++++) | ++ (≤10 but <25: ++) |

Second part, led by results:

| IC50 [1] [nM] | EC50 (HRE-bla ME-180 cells [3]) [µM] | Structure (SMILES) | Viability 1% FBS AVG (MTT V3-24 hr Normoxia) (μM) (HRE-bla ME-180 cells [2]) | 18 h Avg % max inhibition at top conc (HIF Rptr-24 hrs normoxia) (μM) (HRE-bla ME-180 cells [3]) |
| --- | --- | --- | --- | --- |
| > 700 | > 30 | CCCC[C@H](NC(=O)[C@H](CCC(=O)O)NC(=O)[C@]1(C)CCCC=CCCCCCC[C@@](C)(NC(=O)[C@H](CCC(=O)O)NC(=O)[C@H](CC(=O)O)NC(=O)[C@@H](NC(=O)[C@H](CC(N)=O)NC(=O)[C@@H](NC(=O)[C@H](CCC(N)=O)NC(=O)[C@H](CC(=O)O)NC(=O)[C@H](CC(C)C)NC(=O)[C@H](C)NC(=O)[C@H](CCCNC(=N)N)NC(=O)[C@H](CC(C)C)NC(=O)[C@H](CC(C)C)NC(=O)[C@H](CCC(=O)O)NC(=O)[C@H](CCC(=O)O)NC(=O)CNC(=O)[C@H](CCC(N)=O)NC(=O)[C@H](CC(C)C)NC(=O)[C@H](CC(C)C)NC(C)=O)C(C)C)[C@@H](C)CC)C(=O)N[C@@H](C(C)C)C(=O)N[C@@H](CC(C)C)C(=O)N[C@@H](CCCC)C(=O)N[C@@H](CO)C(=O)N[C@@H](CC(C)C)C(=O)N[C@@H](C(C)C)C(=O)N1)C(N)=O [SP-336] (Ac-LLQGEELLRALDQVNIDE[R8]VL[Nle]SLV[S5]E[Nle]-NH2; staple 19-26) | ++++ (≥30: ++++) | + (<10: +) |
| ≤ 200 | > 30 | CCCC[C@H](NC(=O)[C@]1(C)CCCC=CCCC[C@](C)(NC(=O)[C@H](CCCC)NC(=O)[C@H](CC(C)C)NC(=O)[C@@H](NC(=O)[C@H](CCC(=O)O)NC(=O)[C@H](CCC(=O)O)NC(=O)[C@H](C)NC(=O)[C@@H](NC(=O)[C@H](CC(N)=O)NC(=O)[C@@H](NC(=O)[C@]2(C)CCCC=CCCCCCC[C@@](C)(NC(=O)[C@H](CCC(=O)O)NC(=O)CNC(=O)[C@H](CCC(N)=O)NC(=O)[C@H](CC(C)C)NC(=O)[C@H](CC(C)C)NC(C)=O)C(=O)N[C@@H](CC(C)C)C(=O)N[C@@H](CC(C)C)C(=O)N[C@@H](CCCNC(=N)N)C(=O)N[C@@H](C)C(=O)N[C@@H](CC(C)C)C(=O)N[C@@H](CC(=O)O)C(=O)N2)C(C)C)[C@@H](C)CC)C(C)C)C(=O)N[C@@H](CC(C)C)C(=O)N[C@@H](C(C)C)C(=O)N[C@@H]([C@@H](C)CC)C(=O)N1)C(N)=O [SP-349] (Ac-LLQGE[R8]LLRALD[S5]VNIAEEVL[Nle][S5]LVI[S5][Nle]-NH2; staple 6-13, 23-27) | ++++ (≥30: ++++) | +++ (≤25 but <50: +++) |
| > 700 | ≤ 5 | CCCC[C@H](NC(=O)[C@H](CCC(=O)O)NC(=O)[C@]1(C)CCCC=CCCCCCC[C@@](C)(NC(=O)[C@H](CCC(=O)O)NC(=O)[C@H](CC(=O)O)NC(=O)[C@@H](NC(=O)[C@H](CC(N)=O)NC(=O)[C@@H](NC(=O)[C@H](CCC(N)=O)NC(=O)[C@]2(C)CCCC=CCCC[C@](C)(NC(=O)[C@H](CC(C)C)NC(=O)[C@H](CCC(=O)O)NC(=O)[C@H](CCC(=O)O)NC(=O)CNC(=O)[C@H](CCC(N)=O)NC(=O)[C@H](CC(C)C)NC(=O)[C@H](CC(C)C)NC(C)=O)C(=O)N[C@@H](CCCNC(=N)N)C(=O)N[C@@H](C)C(=O)N[C@@H](CC(C)C)C(=O)N2)C(C)C)[C@@H](C)CC)C(=O)N[C@@H](C(C)C)C(=O)N[C@@H](CC(C)C)C(=O)N[C@@H](CCCC)C(=O)N[C@@H](CO)C(=O)N[C@@H](CC(C)C)C(=O)N[C@@H](C(C)C)C(=O)N1)C(=O)NCC(N)=O [SP-312] (Ac-LLQGEEL[S5]RAL[S5]QVNIDE[R8]VL[Nle]SLV[S5]E[Nle]G-NH2; staple 8-12, 19-26) | ++++ (≥30: ++++) | ++++ (≥50: ++++) |
| > 700 | > 30 | CCCC[C@H](NC(=O)[C@H](CCC(=O)O)NC(=O)[C@]1(C)CCCC=CCCCCCC[C@@](C)(NC(=O)[C@H](CCC(=O)O)NC(=O)[C@H](CC(=O)O)NC(=O)[C@@H](NC(=O)[C@H](CC(N)=O)NC(=O)[C@@H](NC(=O)[C@H](CCC(N)=O)NC(=O)[C@H](CC(=O)O)NC(=O)[C@H](CC(C)C)NC(=O)[C@]2(C)CCCC=CCCC[C@](C)(NC(=O)[C@H](CCC(=O)O)NC(=O)CNC(=O)[C@H](CCC(N)=O)NC(=O)[C@H](CC(C)C)NC(=O)[C@H](CC(C)C)NC(C)=O)C(=O)N[C@@H](CC(C)C)C(=O)N[C@@H](CC(C)C)C(=O)N[C@@H](CCCNC(=N)N)C(=O)N2)C(C)C)[C@@H](C)CC)C(=O)N[C@@H](C(C)C)C(=O)N[C@@H](CC(C)C)C(=O)N[C@@H](CCCC)C(=O)N[C@@H](CO)C(=O)N[C@@H](CC(C)C)C(=O)N[C@@H](C(C)C)C(=O)N1)C(=O)NCC(N)=O [SP-311] (Ac-LLQGE[S5]LLR[S5]LDQVNIDE[R8]VL[Nle]SLV[S5]E[Nle]G-NH2; staple 6-10, 19-26) | ++++ (≥30: ++++) | ++ (≤10 but <25: ++) |
